Tests used:
[1] = molecular target: T1, recombinant human Cox-2 (r-hu Cox-2) (Homo sapiens, UniProt P35354); test: Recombinant human PGHS-2 enzyme assay (RHUCX2); format: biochemical; settings: for IC50: read-out: RHUCX2 IC50 (parenthetical value); for inhibition at 0.1 µM / inhibition at 1 µM: read-out: RHUCX2 % Inh. at Dose
T1 construct: made in house; host or cells: baculovirus/Sf9 insect cells (microsomes)
T1 sequence (P35354 18-604): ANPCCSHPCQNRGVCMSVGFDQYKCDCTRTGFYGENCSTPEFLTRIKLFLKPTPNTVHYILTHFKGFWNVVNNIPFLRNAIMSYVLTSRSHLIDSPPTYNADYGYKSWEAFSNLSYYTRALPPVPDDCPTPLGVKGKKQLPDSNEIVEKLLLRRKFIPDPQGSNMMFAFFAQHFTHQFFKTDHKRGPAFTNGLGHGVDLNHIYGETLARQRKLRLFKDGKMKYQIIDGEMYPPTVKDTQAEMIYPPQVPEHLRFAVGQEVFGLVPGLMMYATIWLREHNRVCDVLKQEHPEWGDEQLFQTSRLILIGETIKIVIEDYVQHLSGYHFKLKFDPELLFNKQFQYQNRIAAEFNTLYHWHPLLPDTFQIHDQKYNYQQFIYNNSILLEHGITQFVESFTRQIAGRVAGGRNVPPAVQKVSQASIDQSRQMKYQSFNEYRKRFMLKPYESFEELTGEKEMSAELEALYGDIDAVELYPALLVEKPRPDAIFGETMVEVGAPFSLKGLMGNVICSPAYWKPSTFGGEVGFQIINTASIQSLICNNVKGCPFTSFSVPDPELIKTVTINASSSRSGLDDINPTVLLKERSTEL
Method: (§1) To compare the mean responses of the treatment groups, analysis of variance was applied. Percent inhibition values were determined by comparing the individual treatment mean values to the mean of the control group. Linear regression was used to estimate IC50's/ED50's in appropriate assays.
(§2) EIA reagents for prostaglandin determination were purchased from Perseptive Diagnostics, (Cambridge, Mass.). Prostaglandin E2 (PGE2) levels in lavage fluids were determined after the samples were dried under nitrogen and reconstituted with assay buffer. PGE2 levels in enzyme assays or cell culture media were measured against standards prepared in the same milieu. The immunoassays were conducted as recommended by the manufacturer. The EIA was conducted in 96 well microtiter plates (Nunc Roskilde, Denmark) and optical density was measured using a microplate reader (Vmax, Molecular Devices Corp., Menlo Park, Calif.).
(§3) Inhibition of prostaglandin biosynthesis in vitro was evaluated using recombinant human Cox-1 (r-hu Cox1) and Cox-2 (r-hu Cox-2) enzyme assays. […] The reaction was allowed to run for 2.5 minutes at room temperature prior to quenching with HCl and neutralization with NaOH. PGE2 production in the presence and absence of the drug was determined by EIA analysis. The EIA was conducted in 96 well microtiter plates (Nunc Roskilde, Denmark) and optical density was measured using a microplate reader (Vmax, Molecular Devices Corp., Menlo Park, Calif.). EIA reagents for prostaglandin determination were purchased from Perseptive Diagnostics (Cambridge, Mass.). PGE2 levels were measured against standards prepared in the same milieu. The immunoassays were conducted as recommended by the manufacturer.

[2] = molecular target: T2, recombinant human Cox-1 (r-hu Cox1) (Homo sapiens, UniProt P23219); test: Recombinant human PGHS-1 enzyme assay (RHUCX1); format: biochemical
T2 construct: made in house; host or cells: baculovirus/Sf9 insect cells (microsomes)
T2 sequence (P23219 24-599): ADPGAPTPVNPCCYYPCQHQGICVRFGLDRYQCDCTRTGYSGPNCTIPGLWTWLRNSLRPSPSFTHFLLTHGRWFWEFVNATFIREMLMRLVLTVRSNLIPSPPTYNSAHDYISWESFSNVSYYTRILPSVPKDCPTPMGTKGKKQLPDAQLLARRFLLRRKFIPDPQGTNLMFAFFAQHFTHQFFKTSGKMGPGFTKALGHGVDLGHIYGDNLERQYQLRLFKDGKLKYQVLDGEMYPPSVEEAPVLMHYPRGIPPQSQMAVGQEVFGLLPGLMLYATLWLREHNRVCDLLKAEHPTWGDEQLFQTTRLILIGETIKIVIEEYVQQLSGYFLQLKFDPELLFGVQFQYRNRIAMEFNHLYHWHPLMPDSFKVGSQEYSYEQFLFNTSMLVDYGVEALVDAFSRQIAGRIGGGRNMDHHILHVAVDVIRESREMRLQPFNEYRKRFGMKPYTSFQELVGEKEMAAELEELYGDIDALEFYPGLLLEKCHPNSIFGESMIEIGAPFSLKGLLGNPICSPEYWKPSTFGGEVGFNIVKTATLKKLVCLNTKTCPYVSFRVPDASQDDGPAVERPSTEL
Method: as §1, §2, §3

[3] = 100 μM, read-out: RHUCX1 % Inh. at Dose

| Molecule | RHUCX1 % Inh. at Dose (μM) ([2]; 100 μM) | RHUCX2 % Inh. at Dose (μM) ([1]; 0.1 μM) | RHUCX2 % Inh. at Dose (μM) ([1]; 1 μM) | further results |
| --- | --- | --- | --- | --- |
| 2-(2,2,2-Trifluoroethyl)-4-(4-methoxyphenoxy)-5-[4-(methylsulfonyl)phenyl]-3(2H)-pyridazinone [Example 262] | 15 @ 100% | – | – | IC50 [1]: 432 nM |
| 2-(2-Hexyl)-4-(4-fluorophenyl)-5-[4-(methylsulfonyl)phenyl]-3(2H)-pyridazinone [Example 118] | 31 @ 100% | 72 @ 0.1% | – | RHUCX2 % Inh. at Dose (μM) ([1]; 0.01 μM): 17 @ 0.01% |
| 2-(3-Chlorophenyl)-4-(cyclopentylmethyl)-5-[4-(methylsulfonyl)phenyl]-3(2H)-pyridazinone [Example 364] | 0 @ 100% | 0 @ 0.1% | 86 @ 1% | – |
| CS(=O)(=O)c1ccc(-c2cnn(CC#Cc3ccccc3)c(=O)c2-c2ccc(F)cc2)cc1 [Example 21, 2-(Phenylpropargyl)-4-(4-fluorophenyl)-5-[4-(methylsulfonyl)phenyl]-3(2H)-pyridazinone] | 19 @ 100% | – | – | IC50 [1]: 920 nM |
| C=C(C)Cn1ncc(-c2ccc(S(C)(=O)=O)cc2)c(-c2ccc(F)cc2)c1=O [Example 23, 2-(Methyl-2-propenyl)-4-(4-fluorophenyl)-5-[4-(methylsulfonyl)phenyl]-3(2H)-pyridazinone] | 0 @ 100% | 68 @ 0.1% | – | RHUCX2 % Inh. at Dose (μM) ([1]; 0.01 μM): 27 @ 0.01% |
| CS(=O)(=O)c1ccc(-c2cnn(Cc3ccccc3)c(=S)c2-c2ccc(F)cc2)cc1 [Example 32, 2-Benzyl-4-(4-fluorophenyl)-5-[4-(methylsulfonyl)phenyl]-3(2H)-pridazinethione] | 20 @ 100% | 83 @ 0.1% | 96 @ 1% | – |
| CS(=O)(=O)c1ccc(-c2cnn(CC(=O)c3ccc(F)cc3F)c(=O)c2-c2ccc(F)cc2)cc1 [Example 41, 2-(2,4-Difluorophenacyl)-4-(4-fluorophenyl)-5-[4-(methylsulfonyl)phenyl]-3(2H)-pyrdazinone] | 13 @ 100% | 17 @ 0.1% | 49 @ 1% | – |
| CS(=O)(=O)c1ccc(-c2cnn(Cc3ccc(Cl)s3)c(=O)c2-c2ccc(F)cc2)cc1 [Example 42] | 0 @ 100% | 92 @ 0.1% | 99 @ 1% | – |
| C#CCn1ncc(-c2ccc(S(C)(=O)=O)cc2)c(-c2ccc(F)cc2)c1=O [Example 48, 2-(Propargyl)-4-(4-fluorophenyl)-5-[4-(methylsulfonyl)phenyl]-3(2H)-prridazinone] | 0 @ 100% | 2 @ 0.1% | 73 @ 1% | – |
| CS(=O)(=O)c1ccc(-c2cnn(Cc3ccsc3)c(=O)c2-c2ccc(F)cc2)cc1 [Example 60] | 7 @ 100% | – | – | RHUCX2 % Inh. at Dose (μM) ([1]; 1,000 μM): 100 @ 1,000% |
| Cc1nn(CC(F)(F)F)c(=O)c(-c2ccc(F)cc2)c1-c1ccc(S(C)(=O)=O)cc1 [Example 64] | – | 36 @ 0.1% | 34 @ 1% | RHUCX1 % Inh. at Dose (μM) ([2]; 1 μM): 68 @ 1% |
| CS(=O)(=O)c1ccc(-c2cnn(CC(F)(F)F)c(=O)c2OC2CCCCC2)cc1 [Example 84] | – | – | – | RHUCX2 % Inh. at Dose (μM) ([1]; 0.3 μM): 87 @ 0.3%; RHUCX1 % Inh. at Dose (μM) ([2]; 1 μM): 9 @ 1%; RHUCX1 % Inh. at Dose (μM) ([2]; 10 μM): 49 @ 10% |
| CS(=O)(=O)c1ccc(-c2cnn(CC(F)=C(F)F)c(=O)c2-c2ccc(F)cc2)cc1 [Example 88] | 0 @ 100% | 35 @ 0.1% | – | RHUCX2 % Inh. at Dose (μM) ([1]; 1,000 μM): 97 @ 1,000% |
| CS(=O)(=O)c1ccc(-c2cnn(-c3csc4ccccc34)c(=O)c2-c2ccc(F)cc2)cc1 [Example 107] | – | 36 @ 0.1% | 86 @ 1% | RHUCX1 % Inh. at Dose (μM) ([2]; 1 μM): 50 @ 1%; RHUCX1 % Inh. at Dose (μM) ([2]; 10 μM): 88 @ 10% |
| CS(=O)(=O)c1ccc(-c2cnn(-c3cccc(Br)c3)c(=O)c2Oc2ccc(F)cc2)cc1 [Example 110] | 5 @ 100% | 50 @ 0.1% | 93 @ 1% | – |
| CC1CCC(n2ncc(-c3ccc(S(C)(=O)=O)cc3)c(-c3ccc(F)cc3)c2=O)C1 (centres unmarked) [Example 133] | 23 @ 100% | – | – | IC50 [1]: 358 nM |
| CS(=O)(=O)c1ccc(-c2cnn(-c3ccoc3)c(=O)c2-c2ccc(F)cc2)cc1 [Example 183, 2-(3-Furyl)-4-(4-fluorophenyl)-5-[4-(methylsulfonyl)phenyl]-3(2H)-pyrdazinone] | 25 @ 100% | 51 @ 0.1% | 97 @ 1% | – |
| CC(C)CCc1c(-c2ccc(S(C)(=O)=O)cc2)cnn(CC(F)(F)F)c1=O [Example 209] | 0 @ 100% | 55 @ 0.1% | 79 @ 1% | RHUCX2 % Inh. at Dose (μM) ([1]; 0.01 μM): 40 @ 0.01% |
| CS(=O)(=O)c1ccc(-c2cnn(CC(F)(F)F)c(=O)c2-c2ccc(C(F)(F)F)cc2)cc1 [Example 213, 2-(2,2,2-Trifluoroethyl)-4-(4-trifluoromethylphenyl)-5-[4-(methylsulfonyl)phenyl]-3(2H)-pridazinone] | – | – | – | IC50 [1]: 812 nM; inhibition at 100 µM [2, 3]: 0% |
| Cc1ccc(-c2c(-c3ccc(S(C)(=O)=O)cc3)cnn(CC(F)(F)F)c2=O)cc1F [Example 219, 2-(2,2,2-Trifluoroethyl)-4-(3-fluoro-4-methylphenyl)-5-[4-(methylsulfonyl)phenyl]-3(2H)-pyridazinone] | – | – | – | inhibition at 0.1 µM ([1]; 0.1 μM): 75%; inhibition at 1 µM ([1]; 1 μM): 90%; inhibition at 100 µM [2, 3]: 20% |
| COc1c(F)cc(-c2c(-c3ccc(S(C)(=O)=O)cc3)cnn(CC(F)(F)F)c2=O)cc1F [Example 220, 2-(2,2,2-Trifluoroethyl)-4-(3,5-difluoro-4-methoxyphenyl)-5-[4-(methylsulfonyl)phenyl]-3(2H)-pyridazinone] | – | – | – | inhibition at 0.1 µM ([1]; 0.1 μM): 90%; inhibition at 1 µM ([1]; 1 μM): 96%; inhibition at 1 µM ([2]; 1 μM, read-out: RHUCX1 % Inh. at Dose): 38%; inhibition at 100 µM [2, 3]: 51% |
| CS(=O)(=O)c1ccc(-c2cnn(-c3ccc(F)cc3)c(=O)c2C#Cc2ccccc2)cc1 [Example 231, 2-(4-Fluorophenyl)-4-(pheylethynyl)-5-[4-(methylsulfonl)phenyl]-3(2H)-pyridazinone] | 7 @ 100% | 68 @ 0.1% | 90 @ 1% | – |
| CS(=O)(=O)c1ccc(-c2cnn(-c3ccc(F)c(F)c3)c(=O)c2-c2cccs2)cc1 [Example 237, 2-(3,4-Difluorophenyl)-4-(2-thienyl)-5-[4-(methylsulfonyl)phenyl]-3(2H)-pridazinone] | – | 89 @ 0.1% | – | RHUCX1 % Inh. at Dose (μM) ([2]; 1 μM): 44 @ 1%; RHUCX1 % Inh. at Dose (μM) ([2]; 10 μM): 54 @ 10% |
| CC(C)COc1c(-c2ccc(S(C)(=O)=O)cc2)cnn(-c2cccc(C(F)(F)F)c2)c1=O [Example 542, 2-[3-(Trifluoromethyl)phenyl]-4-(2-methyl-1-propoxy)-5-[4-(methylsulfonyl)phenyl]-3(2H)-pyridazinone] | – | – | – | melting point: 125 to 127 °C |
| CC(C)CCOc1c(-c2ccc(S(C)(=O)=O)cc2)cnn(-c2cccc(C(F)(F)F)c2)c1=O [Example 543, 2-[3-(Trifluoromethyl)phenyl]-4-(3-methyl-1-butoxy)-5-[4-(methylsulfonyl)phenyl]-3(2H)-pyridazinone] | – | – | – | melting point: 82 to 85 °C |
| CC(C)(O)CCOc1c(-c2ccc(S(C)(=O)=O)cc2)cnn(-c2cccc(C(F)(F)F)c2)c1=O [Example 544, 2-[3-(Trifluoromethyl)phenyl]-4-(3-hydroxy-3-methyl-1-butoxy)-5-[4-(methylsulfonyl)phenyl]-3(2H)-pyridazinone] | – | – | – | melting point: 90 to 93 °C |
| C[C@H](O)CCOc1c(-c2ccc(S(C)(=O)=O)cc2)cnn(-c2ccc(F)c(F)c2)c1=O [Example 546, (S)-2-(3,4-Difluorophenyl)-4-(3-hydroxy-1-butoxy)-5-[4-(methylsulfonyl)phenyl]-3(2H)-pyridazinone] | – | – | – | melting point: 128 to 130 °C |

From US20020028938A1, “Prostaglandin endoperoxide H synthase biosynthesis inhibitors” (priority 1997, published 2002)
